Columns and labels:
[1] = Guest molecule concentration after incubation in initial medium without polymer (Comparative Example 1); format: physicochemical; conditions: 37° C., 0.05% SDS in pH 6.8 phosphate buffer
Summary of the method: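 Dissolved guest content measured by HPLC of centrifuged supernatants (37° C., 13000 rpm, 5 min) sampled at 0.5 h, 3 h and 6 h. Incubation was polymer-free at 37° C.±0.5° C. in buffers of pH 2.0-7.4; nominal loading was set by maximum clinical dose.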

[2] = Binary supramolecular self-assembly systems of polymer and target: guest concentration over incubation time (Comparative Example 2); format: physicochemical; conditions: for Times that of the initial medium: 6 h
Description: Experiments were conducted according to the steps in Comparative Example 1, and quantitative analysis was carried out using the analytical method for each target to investigate the regulation ability […] stacking.

[3] = cited from earlier work
[4] = Binary (carrier), ternary and quaternary supramolecular self-assembly systems of polymer, carrier building block and target: guest concentration over incubation time (Examples 1-56); format: physicochemical; conditions: 6 h
Summary of the method: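 Targets were incubated at 37 °C in pH 2.0–7.4 buffers with 0.5% polymer alone or with carrier building blocks, after 0.5 h sonication for ternary systems, and shaken at 200 rpm. Samples at 0.5–6 h were centrifuged and diluted ≥10-fold, and dissolved target was quantified by HPLC; surfactant was added if needed.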

[5] = system built by polymers 102H and 103E3 with carrier 302
[6] = ternary: 102H (0.25% where stated) + 301, carrier % not stated

SMILES: Cc1cn(-c2cc(NC(=O)c3ccc(C)c(Nc4nccc(-c5cccnc5)n4)c3)cc(C(F)(F)F)c2)cn1 [Nilotinib]
- Concentration of guest molecule measured after different incubated time ([1]; 0.5 h): 35.2 µg/mL
- Concentration of guest molecule measured after different incubated time ([1]; 3 h): 24.2 µg/mL
- Concentration of guest molecule measured after different incubated time ([1]; 6 h): 17.9 µg/mL
- Concentration of the target in the solution measured after different incubation time ([2]; binary system with 0.5% polymer 101, incubation 0.5 h): 117.0 µg/mL
- Concentration of the target in the solution measured after different incubation time ([2]; binary system with 0.5% polymer 101, incubation 3 h): 145.8 µg/mL
- Concentration of the target in the solution measured after different incubation time ([2]; binary system with 0.5% polymer 101, incubation 6 h): 149.9 µg/mL
- Concentration of the target in the solution measured after different incubation time ([2]; binary system with 0.5% polymer 102, incubation 0.5 h): 96.7 µg/mL
- Concentration of the target in the solution measured after different incubation time ([2]; binary system with 0.5% polymer 102, incubation 3 h): 188.9 µg/mL
- Concentration of the target in the solution measured after different incubation time ([2]; binary system with 0.5% polymer 102, incubation 6 h): 189.9 µg/mL
- Concentration of the target in the solution measured after different incubation time ([2]; binary system with 0.5% polymer 103, incubation 0.5 h): 125.2 µg/mL
- Concentration of the target in the solution measured after different incubation time ([2]; binary system with 0.5% polymer 103, incubation 3 h): 159.3 µg/mL
- Concentration of the target in the solution measured after different incubation time ([2]; binary system with 0.5% polymer 103, incubation 6 h): 181.5 µg/mL
- Concentration of the target in the solution measured after different incubation time ([2]; binary system with 0.5% polymer 104, incubation 0.5 h): 77.5 µg/mL
- Concentration of the target in the solution measured after different incubation time ([2]; binary system with 0.5% polymer 104, incubation 3 h): 84.9 µg/mL
- Concentration of the target in the solution measured after different incubation time ([2]; binary system with 0.5% polymer 104, incubation 6 h): 61.4 µg/mL
- Concentration of the target in the solution measured after different incubation time ([2]; binary system with 0.5% polymer 106, incubation 0.5 h): 121.2 µg/mL
- Concentration of the target in the solution measured after different incubation time ([2]; binary system with 0.5% polymer 106, incubation 3 h): 81.8 µg/mL
- Concentration of the target in the solution measured after different incubation time ([2]; binary system with 0.5% polymer 106, incubation 6 h): 50.0 µg/mL
- Concentration of the target in the solution measured after different incubation time ([2]; binary system with 0.5% polymer 107, incubation 0.5 h): 107.2 µg/mL
- Concentration of the target in the solution measured after different incubation time ([2]; binary system with 0.5% polymer 107, incubation 3 h): 62.3 µg/mL
- Concentration of the target in the solution measured after different incubation time ([2]; binary system with 0.5% polymer 107, incubation 6 h): 52.3 µg/mL
- Times that of the initial medium ([2]; binary: 0.5% 102H): about 8.5 times
- Times that of the initial medium ([2]; binary: 0.5% 104): ~2.7 times
- Dissociation constant ([3]; basic drug): 5.92
- LogD7.4 or Log P [3]: 5.35
- Log D6.8 ([3]; pH 6.8): 5.27
- Concentration of guest molecule in solution [4, 5]: 391.1 µg/mL
- Encapsulation rate for the guest molecule [4, 5]: 97.8%
- Concentration of guest molecule in solution [4, 6]: 227.2 µg/mL
- Times that of the initial medium [4, 6]: 10 times
- Concentration of guest molecule in solution ([4]; ternary: 102H + 310, carrier % not stated): 317.6 µg/mL
- Concentration of guest molecule in solution ([4]; ternary: 102H + 313, carrier % not given): 365.2 µg/mL
- Concentration of guest molecule in solution ([4]; ternary: 102M + 310): 344.0 µg/mL
- Concentration of guest molecule in solution ([4]; ternary: 102M + 313): 328.9 µg/mL

— US20250339399A1, “SUPRAMOLECULAR SELF-ASSEMBLY SYSTEM” (Beijing Creatron Institute of Pharmaceutical Research Co., …, priority 2022, published 2025)
